Source: US6608080B1, “Morphan derivatives or salts thereof and medicinal compositions containing the same” (Hisamitsu Pharmaceutical Co., Ltd., priority 1999, dated 2003)
Counter-ions that a name gives are not always drawn.

Legend:
glycine receptors = experiment: ionic current induced by glycine in a single neuron of the tractus solitarius nucleus, whole cell patch clamp; assay type: cell-based, guinea pig; parameters: key to Action (class symbol): ±: no action; +: potentiated; −: inhibited; conditions: for type of effect on glycine-induced ionic currents (in words): classification, 1 mM, example 7 at 300 μM; for Action (% of control): mean ± S.E.
Procedure: In order to confirm the excellent actions of the derivatives described in the present invention on modification of glycine receptors, the actions of various morphan derivatives against ionic current induced by glycine were evaluated in a single neuron of the tractus solitarius nucleus of a guinea pig.
The isolation of a single neuron was performed according to the method described in Kay et al. (J. Neurosci. Meth., 16, 227-238, 1986). Guinea pigs, Hartley strain, 7-10 days of age, were anesthetized, bled and decapitated and the medullae were rapidly extracted. Sliced sections, thickness 400 μm, were prepared by using a microslicer. The sliced segments obtained were incubated at 37° C. for 30 minutes, and regions of the tractus solitarius nucleus were punched out under a stereoscope. The punched out specimens were trypsinized in a 100% oxygen atmosphere at 37° C. for 30-60 minutes. The trypsinized tissues were dispersed mechanically to obtain the single neurons. Measurements of the ionic currents activated by glycine were performed using the whole cell mode of the patch clamp method. The ionic currents obtained were recorded using a pen-recorder. Administration of the test compounds was performed by the Y-tube method in which the external fluid peripheral to the cells could be changed to the test drug solution within 2 msec. (Neurosci. Lett., 103, 56-63, 1989). Concentrations of the test compounds were 1 mM, except that the highly lipophilic compound of example 7 was examined at 300 μM. All data were expressed by mean±S.E.
In Table 1, the effects of the morphan derivatives on ionic currents in single neurons from the tractus solitarius nucleus, induced by glycine at 30 μM are summarized.

GABA-induced currents = GABA-induced currents in a single neuron, whole cell patch clamp; assay type: cell-based, guinea pig; conditions: test compound 1 mM; GABA 30 μM (FIG. 1)
[1] = glycine 30 μM, test compound 1 mM
[2] = glycine 30 μM, test compound 300 μM

Row | Compound | type of effect on glycine-induced ionic currents (in words) (glycine receptors) | Action (class symbol) (glycine receptors; [1]) | Action (% of control) (glycine receptors; [1]) [%] | other results
1 | CN1CCC2CCCC1C2 (stereo not drawn) (as salt: hydrochloric acid salt) [Example 1, 2-Methyl-2-azabicyclo[3.3.1]nonane] |  |  |  | melting point: 147 to 152 °C
2 | CN1CCC2CCCC1C2 (stereo not drawn) [Example 1, 2-Methyl-2-azabicyclo[3.3.1]nonane] | weak action | ± | 99.7 ± 1.5 | 
3 | CCN1CCC2CCCC1C2 (stereo not drawn) [Example 2, 2-Ethyl-2-azabicyclo[3.3.1]nonane] | potentiation action | + | 150.6 ± 14.2 | rank of action on glycine-induced current (glycine receptors; glycine 30 μM): strongest enhancing action; action against GABA-induced currents (GABA-induced currents): no action
4 | C=CCN1CCC2CCCC1C2 (stereo not drawn) [Example 3, 2-Allyl-2-azabicyclo[3.3.1]nonane] | potentiation action | + | 138.9 ± 5.6 | 
5 | CCC12CCCC(CCN1)C2 (stereo not drawn) [Example 4, 1-Ethyl-2-azabicyclo[3.3.1]nonane] | inhibitory action | − | 70.9 ± 2.7 | 
6 | CCCC12CCCC(CCN1)C2 (stereo not drawn) [Example 5, 1-Propyl-2-azabicyclo[3.3.1]nonane] | potentiation action | + | 138.1 ± 7.0 | 
7 | C1CC2CCN3CCCC3(C1)C2 (stereo not drawn) [Example 6, 5-Azatricyclo[6.3.1.0^1,5]dodecane] | potentiation action | + | 152.1 ± 16.6 | 
8 | C=CCC12CCCC(CCN1Cc1ccccc1O)C2 (stereo not drawn) [Example 7, 2-{[1-Allyl-(2-propenyl)-2-azabicyclo[3.3.1]nonane-2-yl]methyl}phenol] |  |  |  | concentration range of concentration-dependent inhibition of glycine-induced currents (glycine receptors; FIG. 2, glycine 30 μM): 10 to 300 µM; Action (class symbol) (glycine receptors; [2]): −; Action (% of control) (glycine receptors; [2]): 60.5 ± 2.7%
